Read-outs that look alike come from different tables or passages of the source.
Legend:
Format in all cases: cell-based, human
LNCaP cells [1] = experiment: Apoptosis of LNCaP cells (Yo-Pro-1/7-AAD flow cytometry); details: 48 hr; for induction of apoptosis in LNCaP cells: compound alone
Procedure: (§1) FIGS. 12A-D show the effect of different compounds on the proliferation and apoptosis of LNCaP cells. […] Time-elapsed images were taken with an Incucyte imaging system every hour for 4 days. The proliferation of LNCaP cells is presented as increase in confluency (read by the instrument) at 80 hrs. Data represent the means+SEM of three independent experiments. […] Apoptosis was measured 2 days after treatment by flow cytometry using 7-AAD and Yo-Pro-1 as described in Materials and Methods. Data represent the means+SEM of three independent experiments.
LNCaP cells treated for 48 hours with the different drugs or with DMSO as control were washed and re-suspended in phosphate buffered saline. Yo-Pro-1 (Invitrogen, Carlsbad, Calif.) was added to a final concentration of 1 μM and the cells were incubated for 20 min at 4° C. in the dark. 7-Aminoactinomycin D (7-AAD) (Invitrogen, Carlsbad, Calif.) was then added at a 5 μg/mL final concentration 10 minutes before analysis by flow cytometry using the FACSCalibur system (Becton Dickinson, Mountain View, Calif.). Data were analyzed with FlowJo 7 (Tree Star Inc., Ashland, Oreg.). The Yo-Pro-1 positive cells were considered apoptotic and were expressed as % of total cells. Western blot analysis of treated LNCaP cell lysates was performed as described previously using rabbit anti-cFos, rabbit anti-PKC delta, rabbit anti-phospho-tyrosine 311 of PKC delta or rabbit anti-β-actin antibodies.

LNCaP cells [2] = experiment: Early morphology change (cell flattening) of LNCaP cells by Incucyte imaging
Procedure: (§2) FIGS. 13A and 13B show the proliferation and morphology of LNCaP cells detected by Incucyte. LNCaP cells were treated with DMSO as control, 300 nM PMA, 1000 nM bryostatin 1 or the bryologue MERLE 21, or with 300 nM PMA in combination with 1000 nM bryostatin 1 or the bryologue MERLE 21. Time-elapsed images were taken by the Incucyte imaging system every hour. […] The arrow indicates the time of treatment. Data are representative of three independent experiments.
The extent of confluency of LNCaP cells (from ATCC, Manassas, Va.) and the morphological changes after treatment were followed in real time using Incucyte (Essen Instruments, Ann Arbor, Mich.). […] The confluency of the cells was calculated by the instrument's program. The proliferation of LNCaP cells was expressed as the difference in cell confluency before and after treatment.
The above measurements were determined at fixed times after compound addition, 80 hr for proliferation and 48 hr for apoptosis. Cell growth was monitored continuously using an Incucyte live cell imaging system. […] At early times (0-6 hrs after treatment), the imaging also detected a transient response, reflecting a change in cell morphology induced by the compounds, superimposed on the slower change in the signal reflecting proliferation. […]

LNCaP cells [3] = experiment: Proliferation of LNCaP cells (Incucyte confluency); details: for effect on LNCaP cell growth: compound alone, confluency at 80 hrs
Procedure: as §1, §2
The extent of confluency of LNCaP cells (from ATCC, Manassas, Va.) and the morphological changes after treatment were followed in real time using Incucyte (Essen Instruments, Ann Arbor, Mich.). Images of LNCaP cells plated into 24 well plates were taken every 1 hour by the instrument before and after treatment for a total of 4 days. The confluency of the cells was calculated by the instrument's program. The proliferation of LNCaP cells was expressed as the difference in cell confluency before and after treatment.

U937 cells = experiment: Attachment of U937 cells; details: for attachment of U937 cells: compound alone, 72 hours
Procedure: U937 cells (Sundstrom, C.; Nilsson, K.: Establishment and characterization of a human histiocytic lymphoma cell line (U-937). Int. J. Cancer 1976, 17: 565-577.), purchased from ATCC (Manassas, Va.) and cultured in RPMI-1640 medium supplemented with 10% FBS (ATCC, Manassas, Va.), were plated in 35 mm dishes at a density of 2×10^5 living cells/ml and treated with different concentrations of the drugs or DMSO. After 72 hours, the number of cells in the supernatant (non-attached cells) and the number of attached cells (after trypsinization) were counted using a Beckman particle counter (Beckman Coulter Inc., Fullerton, Calif.). The number of attached cells is expressed as percent of total cells (FIGS. 8-10).
U937 cells were treated with PMA (0.1-100 nM), bryostatin 1 (1-1000 nM), the indicated compound (1-1000 nM), 10 nM PMA with different concentrations of bryostatin 1 (1-1000 nM) or 10 nM PMA with different concentrations of indicated compound (1-1000 nM) for 72 hours. The number of attached cells and total cells were counted and the attached cells were graphed as percent of total cells. The bars and error bars represent the average and the standard error of the mean of five independent experiment (FIGS. 8-10).
U937 cells (Sundstrom and Nilsson, 1976), purchased from ATCC (Manassas, Va.) and cultured in RPMI-1640 medium supplemented with 10% FBS (ATCC, Manassas, Va.), were plated in 35 mm dishes at a density of 1×10^5 living cells/ml and treated with different concentrations of the drugs or DMSO. After 72 hours, the number of cells in the supernatant (non-attached cells) and the number of attached cells (after trypsinization) were counted using a particle counter. The number of attached cells is expressed as percent of total cells.
U937 cells were treated with PMA (0.01-100 nM), bryostatin1 (0.1-1000 nM), analogue 12 (MERLE 28) (0.1-1000 nM), 10 nM PMA with different concentrations of bryostatin 1 (0.1-1000 nM) or 10 nM PMA with different concentrations of analogue 12 (0.1-1000 nM). The number of attached cells and total cells were counted and the attached cells were graphed as percent of total cells. The bars and error bars represent the average and the standard error of the mean of at least three independent experiments.
U-937 cells (Sundstrom and Nilsson, 1976), purchased from ATCC (Manassas, Va.) and cultured in RPMI-1640 medium supplemented with 10% FBS (ATCC, Manassas, Va.), were plated in 35 mm dishes at a density of 1×10^5 living cells/ml and treated with different concentrations of the drugs or DMSO. After 72 hours, the number of cells in the supernatant (non-attached cells) and the number of attached cells (after trypsinization) were counted using a particle counter. The number of attached cells is expressed as percent of total cells.
U-937 cells were treated with PMA (0.1-100 nM), bryostatin 1 (1-1000 nM), the indicated compound (1-1000 nM), 10 nM PMA with different concentrations of bryostatin 1 (1-1000 nM) or 10 nM PMA with different concentrations of indicated compound (1-1000 nM) for 72 hours. The number of attached cells and total cells were counted and the attached cells were graphed as percent of total cells. The bars and error bars represent the average and the standard error of the mean of at least three independent experiments.

SMILES | induction of apoptosis in LNCaP cells (LNCaP cells [1]) | persistence of cell flattening (early morphological response) (LNCaP cells [2]) | effect on LNCaP cell growth (LNCaP cells [3]) | attachment of U937 cells (U937 cells) | block of induction of apoptosis by PMA in LNCaP cells (LNCaP cells [1]; 300 nM PMA in combination with 1000 nM compound) | persistence of cell flattening (early morphological response) (LNCaP cells [2]; LNCaP cells, 0-9 hrs after treatment) | block of the PMA inhibition of LNCaP cell growth (LNCaP cells [3]; 300 nM PMA combined with 1000 nM compound, 80 hrs) | block of PMA-induced attachment of U937 cells (U937 cells; 10 nM PMA with different concentrations of compound) | attachment of U937 cells (U937 cells; listed as Bryostatin 1)
CCCCCCCCCCCCCC(=O)O[C@@H]1[C@@H](C)[C@@]2(O)[C@@H](C=C(CO)C[C@]3(O)C(=O)C(C)=C[C@@H]23)[C@@H]2C(C)(C)[C@]12OC(C)=O [PMA] | induced apoptosis | still evident at 6 hrs but reversing by 9 hrs | marked inhibition of cell proliferation | induces attachment | – | – | – | – | –
CCC/C=C/C=C/C(=O)O[C@H]1/C(=C/C(=O)OC)C[C@H]2C[C@H]([C@@H](C)O)OC(=O)C[C@H](O)C[C@@H]3C[C@H](OC(C)=O)C(C)(C)[C@](O)(C[C@@H]4C/C(=C/C(=O)OC)C[C@H](/C=C/C(C)(C)[C@]1(O)O2)O4)O3 [bryostatin 1] | little effect | – | little effect | much diminished effect | largely blocked the induction of apoptosis by PMA | had reversed by 6 hrs after treatment | blocked the inhibition of LNCaP cell growth by PMA | blocks the effect of the phorbol ester in a dose-dependent manner | much less effect on either response
